Test results: BindingDB's records for doi:10.1016/j.bmcl.2003.12.105 (Ucb Pharma, 2004)

Assays:
[1] = Inhibition of [3H](+)-pentazocine binding to Sigma receptor type 1
[2] = as above; remark: listed apart in the source

## COc1ccc2c(c1)[C@]1(CCN(C)CCO)CCCC[C@@H]1C=C2 [2-{[2-((4aS,10aR)-6-Methoxy-1,3,4,10a-tetrahydro-2H-phenanthren-4a-yl)-ethyl]-methyl-amino}-ethanol]
[1]
  Ki: 161 nM

## COc1ccc2c(c1)[C@]1(CCN(C)CCOCc3ccccc3)CCCC[C@@H]1C=C2 [(2-Benzyloxy-ethyl)-[2-((4aS,10aR)-6-methoxy-1,3,4,10a-tetrahydro-2H-phenanthren-4a-yl)-ethyl]-methyl-amine; compound with GENERIC INORGANIC NEUTRAL COMPONENT]
[1]
  Ki: 241 nM

## COCCN(C)CC[C@@]12CCCC[C@@H]1C=Cc1ccc(OC)cc12 [(2-Methoxy-ethyl)-[2-((4aS,10aR)-6-methoxy-1,3,4,10a-tetrahydro-2H-phenanthren-4a-yl)-ethyl]-methyl-amine; compound with GENERIC INORGANIC NEUTRAL COMPONENT]
[1]
  Ki: 49 nM

## C=CCN(C)CC[C@@]12CCCC[C@@H]1C=Cc1ccc(OC)cc12 [Allyl-[2-((4aS,10aR)-6-methoxy-1,3,4,10a-tetrahydro-2H-phenanthren-4a-yl)-ethyl]-methyl-amine; compound with GENERIC INORGANIC NEUTRAL COMPONENT]
[1]
  Ki: 49 nM

## COc1ccc2c(c1)[C@]13CCCC[C@@H]1[C@H](C2)N(C)CC3 [DEXTROMETHORPHAN]
[1]
  Ki: 348 nM

## COc1ccc2c(c1)[C@]1(CC[N+](C)(C)C(=O)OC(C)(C)C)CCCC[C@@H]1C=C2 [N-{2-[(4aS,10aR)-6-methoxy-1,2,3,4,4a,10a-hexahydrophenanthren-4a-yl]ethyl}-1-(tert-butoxy)-N,N-dimethylcarbonyl{2-[(4aS,10aR)-6-methoxy-1,2,3,4,4a,10a-hexahydrophenanthren-4a-yl]ethyl}dimethylazanium]
[1]
  Ki: > 3300 nM

## COc1ccc2c(c1)[C@]1(CCN(C)C)CCCC[C@@H]1C=C2 [[2-((4aS,10aR)-6-Methoxy-1,3,4,10a-tetrahydro-2H-phenanthren-4a-yl)-ethyl]-dimethyl-amine; compound with GENERIC INORGANIC NEUTRAL COMPONENT]
[1]
  Ki: 245 nM

## CNCC[C@@]12CCCC[C@@H]1C=Cc1ccc(OC)cc12 [[2-((4aS,10aR)-6-Methoxy-1,3,4,10a-tetrahydro-2H-phenanthren-4a-yl)-ethyl]-methyl-amine]
[1]
  Ki: 456 nM

## CCOC(=O)N(C)CC[C@@]12CCCC[C@@H]1C=Cc1ccc(OC)cc12 [[2-((4aS,10aR)-6-Methoxy-1,3,4,10a-tetrahydro-2H-phenanthren-4a-yl)-ethyl]-methyl-carbamic acid ethyl ester]
[1]
  Ki: > 3300 nM

## CN(CC[C@]12CCCC[C@H]1C=Cc1ccc(OCC(=O)OC(C)(C)C)cc12)CC(=O)OC(C)(C)C [{(4bR,8aS)-4b-[2-(tert-Butoxycarbonylmethyl-methyl-amino)-ethyl]-4b,5,6,7,8,8a-hexahydro-phenanthren-3-yloxy}-acetic acid tert-butyl ester]
[1]
  Ki: 115 nM

## CN(CC[C@@]12CCCC[C@@H]1C=Cc1ccc(OCC(=O)OC(C)(C)C)cc12)CC(=O)OC(C)(C)C [{(4bS,8aR)-4b-[2-(tert-Butoxycarbonylmethyl-methyl-amino)-ethyl]-4b,5,6,7,8,8a-hexahydro-phenanthren-3-yloxy}-acetic acid tert-butyl ester]
[1]
  Ki: 14 nM

## COc1ccc2c(c1)[C@]1(CCN(C)CC(=O)OC(C)(C)C)CCCC[C@@H]1C=C2 [{[2-((4aS,10aR)-6-Methoxy-1,3,4,10a-tetrahydro-2H-phenanthren-4a-yl)-ethyl]-methyl-amino}-acetic acid tert-butyl ester; compound with GENERIC INORGANIC NEUTRAL COMPONENT]
[2]
  Ki: 373 nM
[1]
  Ki: 37 nM
